Measurements: ChEMBL document CHEMBL1221282, “The action of bromoconduritol on ER glucosidase II” (Bioorg Med Chem Lett, 2010)

How the values were obtained:
[1] = Inhibition of rat liver glucosidase 2 assessed as inhibition of conversion of G2M9 to G1M9
Rattus norvegicus [2] = organism: Rattus norvegicus; assay: Inhibition of rat liver glucosidase 2 assessed as inhibition of consumption at 100 uM after 1 hr
Rattus norvegicus [3] = organism: Rattus norvegicus; assay: Inhibition of rat liver glucosidase 2 assessed as inhibition of consumption at 100 uM after 20 mins
Rattus norvegicus [4] = organism: Rattus norvegicus; assay: Inhibition of rat liver glucosidase 2 assessed as inhibition of consumption at 100 uM after 24 hrs
[5] = Inhibition of rat liver glucosidase 2 assessed as inhibition of conversion of G1M9 to M9

| IC50 [1] | inhibition (Rattus norvegicus [2]) | inhibition (Rattus norvegicus [3]) | inhibition (Rattus norvegicus [4]) | IC50 [5] | SMILES |
| --- | --- | --- | --- | --- | --- |
| 262 µM | 20% | 36% | < 10% | 41 µM | O[C@H]1[C@H](O)C=CC(Br)[C@@H]1O (some centres undefined) [BROMOCONDURITOL] |
| 8.2 µM | – | – | – | 11.2 µM | OC[C@H]1NC[C@H](O)[C@@H](O)[C@@H]1O [DUVOGLUSTAT] |

| SMILES | IC50 [1] | inhibition (Rattus norvegicus [2]) | inhibition (Rattus norvegicus [3]) | inhibition (Rattus norvegicus [4]) | IC50 [5] |
| --- | --- | --- | --- | --- | --- |
| O[C@H]1[C@H](O)[C@@H](O)CN2CC[C@H](O)[C@H]12 [CASTANOSPERMINE] | 1.3 µM | – | – | – | 1.1 µM |
